Measured values as given in ChEMBL document CHEMBL1138892, “Synthesis of Hsp90 dimerization modulators” (Bioorg Med Chem Lett, 2006).

Each compound was assayed against Heat shock protein HSP90 (Homo sapiens, UniProt P07900+P08238).
Description: Displacement of GM-BODIPY from Hsp90

Row | Structure (SMILES) | EC50 [nM]
1 | COC1=C2C[C@@H](C)C[C@H](OC)[C@H](O)[C@@H](C)/C=C(\C)[C@H](OC(N)=O)[C@@H](OC)/C=C\C=C(/C)C(=O)NC(=C(NC/C=C\CNC3=C4NC(=O)/C(C)=C/C=C\[C@H](OC)[C@@H](OC(N)=O)/C(C)=C/[C@H](C)[C@@H](O)[C@@H](OC)C[C@H](C)CC(=C(OC)C3=O)C4=O)C1=O)C2=O | 345
2 | COC1=C2C[C@@H](C)C[C@H](OC)[C@H](O)[C@@H](C)/C=C(\C)[C@H](OC(N)=O)[C@@H](OC)/C=C\C=C(/C)C(=O)NC(=C(NC/C=C/CNC3=C4NC(=O)/C(C)=C/C=C\[C@H](OC)[C@@H](OC(N)=O)/C(C)=C/[C@H](C)[C@@H](O)[C@@H](OC)C[C@H](C)CC(=C(OC)C3=O)C4=O)C1=O)C2=O | 45
3 | COC1=C2C[C@@H](C)C[C@H](OC)[C@H](O)[C@@H](C)/C=C(\C)[C@H](OC(N)=O)[C@@H](OC)/C=C\C=C(/C)C(=O)NC(=C(NCCCCCCCCCNC3=C4NC(=O)/C(C)=C/C=C\[C@H](OC)[C@@H](OC(N)=O)/C(C)=C/[C@H](C)[C@@H](O)[C@@H](OC)C[C@H](C)CC(=C(OC)C3=O)C4=O)C1=O)C2=O | 465
4 | COC1=C2C[C@@H](C)C[C@H](OC)[C@H](O)[C@@H](C)/C=C(\C)[C@H](OC(N)=O)[C@@H](OC)/C=C\C=C(/C)C(=O)NC(=C(NCCCCNC3=C4NC(=O)/C(C)=C/C=C\[C@H](OC)[C@@H](OC(N)=O)/C(C)=C/[C@H](C)[C@@H](O)[C@@H](OC)C[C@H](C)CC(=C(OC)C3=O)C4=O)C1=O)C2=O | 91
